This is an account of results in patent publication US20060008858A1, “Osteoblast factor(s) that regulates human prostate cancer migration to and invasion of bone” (The Regents of the University of Michigan, priority 2004, published 2006).

For this assay, the system named is LNCaP-C4-2B and VCaP human CaP cells. As to the kind of experiment: Chemotaxtic migration assay (cell culture inserts). Type of assay: cell-based. As to conditions: osteoblast-secreted proteins evaluated in migration assays; FIG. 2. The procedure:
Conditioned medium from human primary pre-osteoblast cells was prepared by plating 5×10^5 cells in 10 ml culture medium (10% FBS DMEM medium) to 100 mm tissue culture dishes. Following 24 hrs to allow for adherence, the medium was removed and the cells washed three times with 10 ml/dish PBS. Washed cells were then incubated 72 hrs in 10 ml/dish serum-free DMEM medium supplemented with 1% (v/v) ITS+(Becton Dickenson, Bedford. Mass.) Medium collected after 72 hrs was filtered through 0.2 μm filter and used directly in in vitro invasion and migration assays with human prostate cancer cells.
Chemotaxtic migration assays were performed as described with modifications (Jeffers et al., 1996). Briefly, cells were harvested with trypsin, washed once with serum-free medium, and resuspended in serum-free DMEM medium to a concentration of 5×10^4 viable cells/ml. 25,000 cells/0.5 ml were then added to 24-well cell culture inserts with a […] pore size (Becton Dickinson, Bedford, Mass.). The inserts were placed in wells containing 0.5 ml of serum-free DMEM, 72 hr serum-free conditioned medium from human primary osteoblasts and incubated for 48 hrs in 5% CO2-95% air at 37° C. […] The total number of invading cells/filter was quantified under 10× magnification. […]

Take “basic Fibroblast Growth Factor: osteoblast-secreted protein, basic fibroblast growth factor”: the “effect on CaP cell migration” value is given as “stimulatory”. Then “IL-6: osteoblast-secreted protein, interleukin 6”, with “stimulatory”.
